Measurements taken from patent publication US8633168B2, “Inhibitors of S-adenosyl-L-methionine decarboxylase” (Genzyme Corporation, priority 2007, dated 2014).

Columns and labels:
[1] = Solubility in phosphate buffer; format: physicochemical; conditions: phosphate buffer, aqueous buffer, kinetic from dmso stock; Example 12 chart; pH 7.4
Description: A stock solution for each test compound was prepared at 25 mM in DMSO. These were diluted into phosphate buffer and equilibrated for 16 hours at room temperature, and then filtered to remove precipitated compound. The UV absorbance of this equilibrated sample was compared to a single point reference standard.

CYP3A4 = CYP3A4 (Homo sapiens, UniProt P08684); assay: Cytochrome P450 inhibition, CYP3A4
From the text: (§1) This cytochrome P450 high throughput IC50 inhibition assay is utilized for screening potential inhibitors of the 5 major human CYP isozyme catalytic activities (CYP3A4, 2D6, 2C9, 2C19, and 1A2).

CYP2D6 = CYP2D6 (Homo sapiens, UniProt P10635); assay: Cytochrome P450 inhibition, CYP2D6
From the text: as §1

CYP2C9 = CYP2C9 (Homo sapiens, UniProt P11712); assay: Cytochrome P450 inhibition, CYP2C9
From the text: as §1

CYP2C19 = CYP2C19 (Homo sapiens, UniProt P33261); assay: Cytochrome P450 inhibition, CYP2C19
From the text: as §1

CYP1A2 = target: T1, CYP1A2 (Homo sapiens, UniProt P05177); assay: Cytochrome P450 inhibition, CYP1A2
T1 sequence (P05177 1-516): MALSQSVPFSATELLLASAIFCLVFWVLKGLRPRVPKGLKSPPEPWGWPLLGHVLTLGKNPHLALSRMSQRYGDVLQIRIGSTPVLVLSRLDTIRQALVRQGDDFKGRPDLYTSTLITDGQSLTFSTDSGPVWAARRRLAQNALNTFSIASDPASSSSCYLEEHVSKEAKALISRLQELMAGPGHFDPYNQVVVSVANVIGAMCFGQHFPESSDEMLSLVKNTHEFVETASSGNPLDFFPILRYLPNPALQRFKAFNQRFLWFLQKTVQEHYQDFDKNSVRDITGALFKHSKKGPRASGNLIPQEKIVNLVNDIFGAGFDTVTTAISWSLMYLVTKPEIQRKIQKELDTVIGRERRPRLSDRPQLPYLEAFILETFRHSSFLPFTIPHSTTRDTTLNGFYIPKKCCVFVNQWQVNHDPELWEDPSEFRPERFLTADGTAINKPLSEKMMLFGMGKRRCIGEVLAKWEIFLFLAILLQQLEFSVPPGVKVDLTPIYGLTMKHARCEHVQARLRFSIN
From the text: as §1

T. b. brucei = assay: Cell-based screening against T. b. brucei; design: species or system Trypanosoma brucei brucei; conditions: Screening Data, two values per compound
Description: The bloodstream form trypomastigotes of the three strains are maintained according to standard protocols established at STI.
Drug sensitivity assays are performed in sterile 96-well microtiter plates, with or without serial drug dilutions. The highest concentration for the test compounds is 90 μg/ml. Each drug is tested in duplicate. After 72 hours of incubation the plates are inspected microscopically to assure growth of the controls to determine the minimum inhibitory concentration (MIC), i.e., the lowest drug concentration at which no trypanosomes with normal morphology and motility can be seen compared to control wells. Cell viability is measured by Alamar blue staining and IC50 values are calculated.
Active compounds (IC50<0.2 μg/ml) are tested against the Trypanosoma brucei gambiense STIB 930 and the multi-drug resistant T. b. brucei STIB 950 following the same protocol as described above.
This example provides data relating to the biological screening results. MDL 73811 and selected new compounds 1-7 were tested against a variety of cell-based organisms and enzymes and the IC50 measured. In vitro ADME profiles were also obtained. Solubility, permeability, microsomal/hepatocyte stability, cychrome P450 inhibition and plasma protein binding characteristics were probed for each of the compounds. The methodology for these tests are described in previous paragraphs. The results are summarized in the following 2 charts.

Schistosomes adult = assay: Screening against Schistosomes, adult; format: cell-based; conditions: Screening Data
Schistosomes lavae = assay: Screening against Schistosomes, larvae; format: cell-based; conditions: Screening Data

CYP3A4, sequence (P08684 whole entry): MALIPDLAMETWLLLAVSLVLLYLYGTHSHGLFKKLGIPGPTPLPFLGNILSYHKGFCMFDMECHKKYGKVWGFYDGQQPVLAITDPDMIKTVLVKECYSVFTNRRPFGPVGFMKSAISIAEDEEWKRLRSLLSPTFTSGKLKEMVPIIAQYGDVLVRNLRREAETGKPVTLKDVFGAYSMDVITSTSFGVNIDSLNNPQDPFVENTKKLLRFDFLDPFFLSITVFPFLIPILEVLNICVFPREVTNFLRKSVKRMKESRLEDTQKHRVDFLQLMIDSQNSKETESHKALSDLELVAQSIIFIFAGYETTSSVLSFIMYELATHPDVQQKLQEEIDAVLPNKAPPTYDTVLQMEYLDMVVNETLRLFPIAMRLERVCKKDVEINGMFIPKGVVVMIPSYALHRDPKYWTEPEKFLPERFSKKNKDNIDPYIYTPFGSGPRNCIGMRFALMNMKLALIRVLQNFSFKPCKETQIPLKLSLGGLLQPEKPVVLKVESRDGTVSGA
CYP2C19, sequence (P33261 whole entry): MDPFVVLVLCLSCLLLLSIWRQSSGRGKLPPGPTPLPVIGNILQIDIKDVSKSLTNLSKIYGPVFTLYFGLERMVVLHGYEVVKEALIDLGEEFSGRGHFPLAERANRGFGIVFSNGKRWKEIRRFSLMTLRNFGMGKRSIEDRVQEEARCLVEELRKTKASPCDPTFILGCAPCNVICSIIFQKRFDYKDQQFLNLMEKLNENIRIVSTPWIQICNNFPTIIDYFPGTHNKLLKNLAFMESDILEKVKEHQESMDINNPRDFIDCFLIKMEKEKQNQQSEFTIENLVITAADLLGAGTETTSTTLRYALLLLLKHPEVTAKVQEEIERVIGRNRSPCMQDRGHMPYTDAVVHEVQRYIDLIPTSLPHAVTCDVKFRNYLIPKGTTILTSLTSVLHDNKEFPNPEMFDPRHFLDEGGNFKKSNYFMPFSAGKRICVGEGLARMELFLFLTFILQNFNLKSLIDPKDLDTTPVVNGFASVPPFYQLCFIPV
CYP2C9, sequence (P11712 whole entry): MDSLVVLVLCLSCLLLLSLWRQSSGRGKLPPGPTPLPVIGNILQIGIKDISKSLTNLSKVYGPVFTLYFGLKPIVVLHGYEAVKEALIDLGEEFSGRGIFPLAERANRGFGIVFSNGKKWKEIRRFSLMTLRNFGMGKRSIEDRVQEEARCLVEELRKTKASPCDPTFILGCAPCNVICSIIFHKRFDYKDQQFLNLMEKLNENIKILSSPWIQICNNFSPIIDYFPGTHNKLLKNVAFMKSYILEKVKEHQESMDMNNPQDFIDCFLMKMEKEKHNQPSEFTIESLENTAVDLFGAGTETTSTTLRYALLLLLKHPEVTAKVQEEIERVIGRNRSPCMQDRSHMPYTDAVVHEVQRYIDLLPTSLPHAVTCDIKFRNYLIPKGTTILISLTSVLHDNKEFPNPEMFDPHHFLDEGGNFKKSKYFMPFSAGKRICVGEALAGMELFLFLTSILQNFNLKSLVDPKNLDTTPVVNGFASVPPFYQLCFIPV
CYP2D6, sequence (P10635 whole entry): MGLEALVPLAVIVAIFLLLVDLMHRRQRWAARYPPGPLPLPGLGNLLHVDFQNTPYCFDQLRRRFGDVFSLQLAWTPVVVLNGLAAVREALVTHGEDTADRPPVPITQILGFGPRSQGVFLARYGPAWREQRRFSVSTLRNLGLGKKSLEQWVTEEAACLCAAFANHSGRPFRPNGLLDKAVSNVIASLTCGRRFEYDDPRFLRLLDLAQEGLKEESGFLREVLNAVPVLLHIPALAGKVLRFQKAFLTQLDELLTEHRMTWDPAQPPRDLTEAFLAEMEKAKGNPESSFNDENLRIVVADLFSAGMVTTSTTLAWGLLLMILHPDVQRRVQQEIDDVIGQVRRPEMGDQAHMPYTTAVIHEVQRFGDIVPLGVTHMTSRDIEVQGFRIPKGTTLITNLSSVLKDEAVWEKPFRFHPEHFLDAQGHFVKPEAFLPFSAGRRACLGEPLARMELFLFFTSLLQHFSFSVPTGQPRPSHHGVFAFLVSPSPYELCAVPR

SMILES | solubility at 16 hours [1] [µg/mL] | IC50 (CYP3A4) [µM] | IC50 (CYP2D6) [µM] | IC50 (CYP2C9) [µM] | IC50 (CYP2C19) [µM] | IC50 (CYP1A2) [µM] | IC50 (T. b. brucei; Trypanosoma brucei) [µM] | IC50 (Schistosomes adult) [µM] | IC50 (Schistosomes lavae) [µM] | logD (LogD) | IC50 (T. b. brucei) [µM]
Cc1nc(N)c2ncn([C@@H]3O[C@H](CN(C)C/C=C\CN)[C@@H](O)[C@H]3O)c2n1 [Compound 5] | > 49 | > 5 | > 5 | > 5 | > 5 | > 5 | > 14 | > 10 | > 10 | < 1 | –
CCc1nc2c(N)ncnc2n1[C@@H]1O[C@H](CN(C)C/C=C\CN)[C@@H](O)[C@H]1O [Compound 6] | > 51 | > 5 | > 5 | > 5 | > 5 | > 5 | 1.16 | > 10 | > 10 | < 1 | 0.64
CCCc1nc2c(N)ncnc2n1[C@@H]1O[C@H](CN(C)C/C=C\CN)[C@@H](O)[C@H]1O [Compound 7] | > 52 | > 5 | > 5 | > 5 | > 5 | > 5 | 12.7 | > 10 | > 10 | < 1 | 9.4
